Series [1] concerns the target T1, Rlig1-AMP (Homo sapiens, UniProt Q8N999).
T1 construct: made in house; host or cells: E. coli BL21 (DE3), pET15b-Rlig1
Kind of series: FRET-based high-throughput screening of inhibitors for Rlig1-AMP. The settings on record: sheet HTS hits; for 1-D Distance: difference of raw data w/o and w enzyme; for Raw data [w Enyzm]: with enzyme; for Raw data [w/o Enzym]: without enzyme. Format: biochemical.

For series [2] the following is noted: ref MedChemExpress, cited from earlier work; for solubility, DMSO: in DMSO; for solubility, H2O: in H2O.
Series [3] concerns HEK293 cells. Kind of series: Cell viability assay of HEK293 cells treated with inhibitors and menadione. The format is cell-based, human. Particulars: for Mean Diff, (Predicted (LS) mean diff,) w/o menadione - w menadione: 2 way ANOVA, Šídák's multiple comparisons test, normalised viability.
Experiment in series [4]: as above
The format is cell-based, human. The settings on record: human, HEK293 cells, w/o Menadione; for viability at 7.5 µM: 7.5 µM compound; for viability at 15 µM: 15 µM compound; for viability at 30 µM: 30 µM compound; for viability at 60 µM: 60 µM compound.

Series [5] in a line: in vitro. The settings on record: human.
Series [6] concerns the target T1, Rlig1-AMP. Kind of series: Radioactive RNA ligation assay (hit validation, 10 µM test and IC50 determination). The format is biochemical. Particulars: for IC50: n = 3.
Series [7] concerns HEK293 cells. Kind of series: Cell viability assay of HEK293 cells treated with inhibitors (CellTiter-Glo). A general note: Cellular ATP, detected with luciferase, serves as a proxy for viable cell number.
[8] abbreviates: 20240508 plate 012, DMSO Ko no Mendione = 100.
[9] abbreviates: 20240508 plate 013, DMSO Ko no Mendione = 100.
Setting [10] is: 20240515 plate 014, DMSO Ko no Mendione = 100.
Where [11] appears, read: 20240515 plate 015, DMSO Ko no Mendione = 100.
The mark [12] stands for this setting: log(inhibitor) vs. response, variable slope (four parameters).

≈ marks a conversion by molar mass, not a printed value. Where “and” joins values, the source holds several entries; their conditions need not be identical. Equal entries are not always repeated. Entries after “also recorded” stand apart in the source; their conditions may differ. Where two headings read alike, the source gives them in different places. Marks after values point to notes of the source that are not given here.

T1 sequence (Q8N999 whole entry): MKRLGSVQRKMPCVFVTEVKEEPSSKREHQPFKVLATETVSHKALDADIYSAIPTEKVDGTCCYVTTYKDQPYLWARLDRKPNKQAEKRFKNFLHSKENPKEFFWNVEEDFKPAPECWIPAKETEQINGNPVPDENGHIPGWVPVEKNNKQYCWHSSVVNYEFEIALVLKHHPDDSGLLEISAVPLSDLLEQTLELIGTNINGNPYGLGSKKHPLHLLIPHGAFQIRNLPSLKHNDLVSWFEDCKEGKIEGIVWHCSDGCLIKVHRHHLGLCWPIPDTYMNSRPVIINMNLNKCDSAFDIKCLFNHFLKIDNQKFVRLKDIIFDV

Regarding `COC(=O)c1cc(OC)c2c(c1-c1c(C(=O)OC)cc(OC)c3c1OCO3)OCO2` [Bifendate], in series [1], the “1-D Distance” value is 1790, the “Raw data [w Enyzm]” value amounted to 9076 and the “Raw data [w/o Enzym]” value came out at 10866. In addition, in series [2], the “solubility, DMSO” value was 50 mg/mL (≈ 120 mM) and the “solubility, H2O” value was 1 mg/mL (≈ 2.39 mM).

With `CCCCCCCCCCCCCCCC[n+]1ccccc1.O.[Cl-]` [Cetylpyridinium (chloride monohydrate)], in series [2], the “solubility, DMSO” value is 20 mg/mL and the “solubility, H2O” value is recorded as at least 100 mg/mL.

As to `CCCCCCCCCCCCCCCC[n+]1ccccc1.[Cl-]` [Cetylpyridinium (chloride)], in series [2], the “solubility, DMSO” value is reported as “DMSO : 100 mg/mL (294.13 mM; Need ultrasonic); H2O : 100 mg/mL (294.13 mM; Need ultrasonic)” and the “solubility, H2O” value was “DMSO : 100 mg/mL (294.13 mM; Need ultrasonic); H2O : 100 mg/mL (294.13 mM; Need ultrasonic)”.

The term viability denotes a read-out of living cells in per cent, often relative to untreated cells. By IC50 is commonly meant the point on the concentration scale where inhibition reaches its midpoint. The term inhibition denotes the drop in the measured response relative to a control, in per cent. As usually defined, the EC50 is the concentration needed to bring the measured effect to its halfway point. Take `Cc1cc(Nc2ccc(NC(=O)c3ccc(Nc4ncnc5ccccc45)cc3)cc2)nc(N)n1` [Compound 45]: the “Mean Diff, (Predicted (LS) mean diff,) w/o menadione - w menadione” value in series [3] (7.5 µM compound) is recorded as 24.88; in series [3] (15 µM compound) it was 16.86; in series [3] (30 µM compound), 21.74; in series [3] (60 µM compound), 16.46. Besides, the “Cell viability raw signal, technical replicates” value (“Cell viability raw signal” below) in series [3] (7.5 µM compound, w Menadione (40µM), 20240508 plate 012) was 16292 and 19945 and 19668 and 21930; in series [3] (7.5 µM compound, w Menadione (40µM), 20240508 plate 013), 13213 and 13818 and 17967 and 18789; in series [3] (7.5 µM compound, w Menadione (40µM), 20240515 plate 014), 24555 and 24471 and 26313 and 33654; in series [3] (7.5 µM compound, w Menadione (40µM), 20240515 plate 015), 35092 and 33991 and 36306 and 39027; in series [3] (7.5 µM compound, w/o Menadione, 20240508 plate 012), 424180 and 398710 and 420300 and 419520; in series [3] (7.5 µM compound, w/o Menadione, 20240508 plate 013) it was 399000 and 385630 and 399650 and 394170. Further, the “Cell viability raw signal” value in series [3] (7.5 µM compound, w/o Menadione, 20240515 plate 014) is 359950 and 358800 and 374740 and 459430; in series [3] (7.5 µM compound, w/o Menadione, 20240515 plate 015), 358750 and 400730 and 451820 and 450580; in series [3] (15 µM compound, w Menadione (40µM), 20240508 plate 012) it was 17222 and 18766 and 16741 and 22933; in series [3] (15 µM compound, w Menadione (40µM), 20240508 plate 013), 19848 and 20626 and 16969 and 23253; in series [3] (15 µM compound, w Menadione (40µM), 20240515 plate 014) it was 32272 and 27116 and 27955 and 28425; in series [3] (15 µM compound, w Menadione (40µM), 20240515 plate 015), 25226 and 26073 and 29252 and 24387. The “Cell viability raw signal” value in series [3] (15 µM compound, w/o Menadione, 20240508 plate 012) was 374870 and 367440 and 401070 and 451770; in series [3] (30 µM compound, w Menadione (40µM), 20240508 plate 012) it was 97659* and 121480* and 17759 and 18485; in series [3] (30 µM compound, w Menadione (40µM), 20240508 plate 013) it was 90653* and 101750* and 11751 and 20016; in series [3] (30 µM compound, w Menadione (40µM), 20240515 plate 014), 23460 and 20263 and 23532 and 25800; in series [3] (30 µM compound, w Menadione (40µM), 20240515 plate 015), 18936 and 15616 and 21631 and 19990; in series [3] (30 µM compound, w/o Menadione, 20240508 plate 012), 326400 and 344550 and 324690 and 360730. For the same molecule, the “Cell viability raw signal” value was 380950 and 384250 and 337920 and 371050 in series [3] (30 µM compound, w/o Menadione, 20240508 plate 013); 277620 and 270780 and 277750 and 275770 in series [3] (30 µM compound, w/o Menadione, 20240515 plate 014); 297120 and 296520 and 307370 and 366230 in series [3] (30 µM compound, w/o Menadione, 20240515 plate 015); 18908 and 18178 and 17095 and 16101 in series [3] (60 µM compound, w Menadione (40µM), 20240515 plate 014); 15825 and 18398 and 15296 and 15572 in series [3] (60 µM compound, w Menadione (40µM), 20240515 plate 015); 265840 and 239610 and 250590 and 244440 in series [3] (60 µM compound, w/o Menadione, 20240515 plate 014). In addition, the “Cell viability raw signal” value in series [3] (60 µM compound, w/o Menadione, 20240515 plate 015) is 267940 and 266670 and 268950 and 268790. Moreover, the viability at 7.5 µM in series [4] (setting [8]) worked out at 99.2%; in series [4] (setting [9]), 99.9%; in series [4] (setting [10]) it was 95.1%; in series [4] (setting [11]), 102%. For the same molecule, the viability at 15 µM in series [4] (setting [8]) was found to be 95.2%; in series [4] (setting [9]), 92.3%; in series [4] (setting [10]) it was 81.5%; in series [4] (setting [11]), 84.3%. The viability at 30 µM in series [4] (setting [8]) came to 80.9%; in series [4] (setting [9]), 93.3%; in series [4] (setting [10]), 67.5%; in series [4] (setting [11]) it was 77.5%. Also, the viability at 60 µM was found to be 61.3% in series [4] (setting [10]) and 65.6% in series [4] (setting [11]). Moreover, the viability at 24 h, 0.234375 µM in series [5] amounted to 110%. The viability at 24 h, 0.46875 µM in series [5] stood at 101%. Also, the viability at 24 h, 0.9375 µM in series [5] stood at 105%. Further, in series [5], the viability at 24 h, 1.875 µM came out at 100%. Also, in series [5], the viability at 24 h, 3.75 µM was 103%. Besides, in series [5], the viability at 24 h, 7.5 µM amounted to 97.1%. Moreover, the viability at 24 h, 15 µM in series [5] turned out to be 90.2%. In addition, the viability at 24 h, 30 µM in series [5] is 88.8%. Further, in series [6] (10 μM compound, 500 nM Rlig1-AMP, 20 min 37 °C), the “inhibition of Rlig1-AMP ligation (urea-PAGE)” value is “Ligation was inhibited; also recorded: inhibited ligase activity”. Further, in series [6] (four-parameter fit), the “HillSlope (best-fit value)” value came to 4.095. Also, the “Span (best-fit value)” value in series [6] (four-parameter fit) turned out to be 90.88. In addition, the IC50 in series [6] (four-parameter fit, read-out: IC50 (best-fit value)) is 7.02 µM; in series [6] (radioactive ligation assay, 500 nM Rlig1-AMP, 20 min 37 °C, read-out: IC50) it was 7.02 µM. The inhibition at 30 µM in series [6] (log Compound [µM] 1.47712, replicates I-III, read-out: percentage inhibition (dose response curve for IC50)) was determined as 100%. In addition, the “LogIC50 (best-fit value)” value in series [6] (log of µM, four-parameter fit) stood at 0.8461. For the same molecule, the “Bottom (best-fit value)” value in series [6] (setting [12]) is 7.303. Moreover, the “Top (best-fit value)” value in series [6] (setting [12]) is on record as 98.18. Besides, the “cytotoxicity (in words)” value in series [7] (HEK293, 24 h, up to 30 μM) is reported as “no detectable cytotoxicity”. Moreover, in series [7] (HEK293 cell viability, fit per plate (3 plates, 4 technical replicates each), highest tested concentration 30 µM), the “IC50 (Figure 3D: EC50 values for plot; log(inhibitor) vs. response -- Variable slope (four parameters))” value is 336.896 µM and 119.897 µM and 368.238 µM. The “LogIC50 (log(inhibitor) vs. response -- Variable slope (four parameters))” value in series [7] (HEK293 cell viability, fit per plate (3 plates, 4 technical replicates each), log of [µM]) was 2.5275 and 2.079 and 2.566. In series [7] (Homo sapiens, HEK293, 24 h), this molecule came in with an EC50 of over 30 µM.

Regarding `COc1cccc2c1C(=O)c1c(O)c3c(c(O)c1C2=O)C[C@@](O)(C(C)=O)C[C@@H]3O[C@H]1C[C@H](N)[C@H](O)[C@H](C)O1.Cl` [Daunorubicin (hydrochloride)], the “1-D Distance.npi” value in series [1] (MedChemExpress library) was 94.9773. Besides, in series [1], the “1-D Distance” value is on record as 667, the “Raw data [w Enyzm]” value is on record as 1522 and the “Raw data [w/o Enzym]” value came out at 2189. For the same molecule, in series [2], the “solubility, DMSO” value is on record as 50 mg/mL and the “solubility, H2O” value is recorded as at least 34 mg/mL.

As to `C[C@]12C=CC(=O)N[C@@H]1CC[C@@H]1[C@@H]2CC[C@]2(C)[C@@H](C(=O)Nc3cc(C(F)(F)F)ccc3C(F)(F)F)CC[C@@H]12` [Dutasteride], in series [1], the “1-D Distance” value came to 1706, the “Raw data [w Enyzm]” value was 9054 and the “Raw data [w/o Enzym]” value is 10760. For the same molecule, in series [2], the “solubility, DMSO” value is on record as “DMSO : 33.33 mg/mL (63.06 mM; Need ultrasonic)”.

Source of the values: paper PMC11747885, “Potent inhibitors of the human RNA ligase Rlig1 highlights its role in RNA integrity maintenance under oxidative cellular stress” (Chemical Science, 2025).
